Data: patent US7462347B2, “Fluorescent membrane intercalating probes” (priority 2000, dated 2008)

How the values were obtained:
[1] = Solubility of FR/NIR probes in ethanol, water and Diluent C; type: physicochemical
Experimental: Effects of the various combinations of asymmetrical and symmetrical alkyl chains and methene bridges on the solubility of the compounds of the present invention were examined. Compounds 8, 25, 13, 15 and 26 were all soluble in ethanol at concentrations≧1 mM. The more lipophilic probes 15 and 26, however, required sonication for a few minutes to achieve dissolution at 1 mM in ethanol. All example probes-were poorly soluble in water. Triplicate 1:50 dilutions of stock 1 mM probe solutions were made in either ethanol or test diluent. After 30 minutes at room temperature solutions were centrifuged at 10,000×g for 10 minutes to remove any microagregates and […] aliquots were transferred to 2.0 ml of ethanol for absorbance determinations. Based on the teachings of Leung et al. and on solubility specifications found on Sigma Certificates of Analysis for the commercial diluents (diluent supernatant absorbance at 30 minutes at least 60% of ethanol supernatant absorbance after 30 minutes), a preliminary specification at least 60% of the ethanol control was set as a surrogate for solubility sufficient to achieve cell labeling with S/N ratios greater than 100 and to minimize potential problems with brightness or reproducibility of labeling. None of the probes was as soluble after 30 minutes in Diluent C as PKH26 (86%±4% of ethanol control).

[2] = system: YAC-1 murine lymphoma cells; assay: Probe effects on cell viability and cell growth (Maximum Tolerated Concentration); type: cell-based; details: for Growth Inhibition / Cytotoxicity: at MTC; for Growth Inhibition: 22-24 hours culture, versus diluent alone; for Cytotoxicity: trypan blue exclusion immediately post-staining (T = 0)
Experimental: YAC-1 murine lymphoma cells were stained at a concentrations of 10^7 cells/ml with increasing concentrations of probe by rapidly admixing 2× cells suspended in Diluent C with 2× probe in Diluent C. After 5 minutes at room temperature, the staining was stopped by the addition of cell culture medium. Cells were then washed thoroughly (RPI1640+10.0% FBS) and cultured under standard conditions for 22-24 hours. Cell numbers were compared to those in a control culture treated with diluent alone.
Maximum Tolerated Concentration (MTC) of probe was defined as the highest concentration of probe at which (1) viability by trypan blue exclusion immediately post-staining was>90% and (2) YAC cell growth after 24 hours was no more than 10% different than growth of cells in diluent alone.

[3] = Absorbance/emission spectra in ethanol; type: physicochemical; design: key to Excitation Max / Emission Max: wavelength in nm; details: for Absorbance Max / Emission Max / Excitation Max: solutions in ethanol
Experimental: Referring now to Table 1 there are shown representations of the absorbance and emission properties of some example compounds of the present invention. Absorption and Fluorescence spectra were […] using 0.25 μM solutions in ethanol on a Jasco, Inc. UV-530 UV/VIS spectrophotometer and FP 750 spectrofluorometer, respectively. Approximate extinction coefficients were estimated from the absorbance scans by dividing the maximum absorbance by the nominal concentration ([…]).

SMILES	solubility retained in Diluent C after 30 minutes ([1]; 30 min, 20 µM)	solubility ([1]; organic solvent or mixture)	MTC (Maximum Tolerated Concentration) ([2]; YAC-1 cells, 5 minutes staining in Diluent C)	Growth Inhibition [2]	Cytotoxicity [2]	Absorbance Max [3]	Emission Max [3]	Excitation Max [3]	emission maximum wavelength ([3]; excitation light of about 647 nm)	solubility retained in Diluent C after 30 minutes ([1]; Diluent C, 30 minutes)	maximum fluorescence ([3]; excitation light of about 635 nm)	solubility after 30 minutes in Diluent C ([1]; 1:50 dilution of 1 mM stock, 30 minutes at room temperature)
CCCCCCCCCCCCCCCCCCCCCC[N+]1=C(/C=C/C=C/C=C2/N(CCCCCCCCCCCCCC)c3ccc4ccccc4c3C2(C)C)C(C)(C)c2ccccc21 [Compound 25]	greater than 55 % of solubility at T0	≥ 1000 µM	10 µM	<4%	<1%	666	682	667				
CCCCCCCCCCCCCCCCCCCCCC[N+]1=C(/C=C/C=C/C=C2/N(CCCCCCCCCCCCCC)c3ccc4ccccc4c3C2(C)C)C(C)(C)c2c1ccc1ccccc21.[I-] [Compound 13]				<1%	<1%	684	713	680	713 nm			
CCCCCCCCCCCCCCCCCCCCCC[N+]1=C(/C=C/C=C/C=C2/N(CCCCCCCCCCCCCC)c3ccccc3C2(C)C)C(C)(C)c2ccccc21.[I-] [Compound 8]				<1%	<1%	626	667	647		approximately 65 % of solubility at T0	667 nm	
CCCCCCCCCCCCCCCCCCCCCC[N+]1=C(/C=C/C=C2/N(CCCCCCCCCCCCCC)c3ccccc3C2(C)C)C(C)(C)c2ccccc21.[I-] [PKH26, reference compound]				<1%	<1%							86%±4%
CCCCCCCCCCCCCCCCCCCCCC[N+]1=C(/C=C/C=C/C=C/C=C2/N(CCCCCCCCCCCCCC)c3ccc4ccccc4c3C2(C)C)C(C)(C)c2c1ccc1ccccc21.[I-] [Compound 15]				<5%	<1%	786	814	790		approximately 65 % of solubility at T0		
